Measurements taken from US20240164267A1, “GENETIC MECHANISM TO ENHANCE HEALTHY STEROLS AND HARD ENDOSPERM IN SEEDS” (Iowa State University Research Foundation, Inc., priority 2022, published 2024).

Columns and labels:
[1] = tested on: ZmSMT2 mRNA; assay: Exogenous sterol feeding of maize seedlings, relative mRNA quantification of ZmSMT2; format: in vivo; conditions: for ZmSMT2 mRNA: wild type W22 roots
Protocol: FIG. 6C-D show relative mRNA quantification of ZmHMGR and ZmSMT2 genes in Zmcyp710a8-1 background in response to various sterols (10 μM) for 4 hours in roots (FIG. 6C) and in shoots (FIG. 6D). ZmACTIN served as the reference gene for normalization. Data are means±SD. Asterisks indicate statistical significance by Students t-test compared to 0 h in FIG. 6A and to Mock in FIG. 6B, FIG. 6C, and FIG. 6D. *P<0.05 **P<0.01 ***P<0.001; ns, not significant.

[2] = tested on: ZmHMGR mRNA; assay: Exogenous sterol feeding of maize seedlings, relative mRNA quantification of ZmHMGR; format: in vivo; conditions: for ZmHMGR mRNA: wild type W22 roots
[3] = tested on: Zmcyp710a8-1 mutant root metabolites; assay: Exogenous stigmasterol feeding of Zmcyp710a8-1 mutant, metabolite levels in root tissue (GC/MS); format: in vivo, maize; conditions: root tissue of Zmcyp710a8-1 null mutant with exogenous stigmasterol feeding, compared with W22
Text: Relative metabolite levels in the two maize mutants compared to their wild type are shown as fold changes in Root and Shoot. […] Asterisks indicate statistical significance by Students t-test compared to Zmcyp710a8-1. *P<0.05 **P<0.01 ***P<0.001.
To identify cellular metabolites influenced by stigmasterol, non-targeted GC/MS metabolite analysis of roots and shoots of maize Zmcyp710a8 and wild type was used. A total of 29 molecular features (13 known and 16 unknown molecular features) were identified in roots and 31 features (17 known and 14 unknown molecular features) in shoots (FIG. 7). The concentration of molecular features correlated with stigmasterol content among genotypes in maize and the features belonged to similar classes including sterol, amino acid, primary metabolism, and unknown features in roots and shoots (FIG. 7).
Since changes in metabolites among the genotypes correlated with stigmasterol content, it was reasoned that exogenous stigmasterol may reverse the metabolite levels in Zmcyp710a8-1 mutant to wild type levels.

[4] = 10 μM sterol feeding, after 4 and 8 h
[5] = roots and shoots of Zmcyp710a8-1, 10 μM sterol, 4 hours

SMILES | ZmSMT2 mRNA [1, 4] | ZmHMGR mRNA [2, 4] | ZmSMT2 mRNA levels [1, 5] | ZmSMT2 mRNA ([1]; 10 μM stigmasterol, after 8 h) | ZmHMGR mRNA levels [2, 5] | ZmHMGR mRNA ([2]; 10 μM stigmasterol, after 8 h) | levels of selected metabolites (sitosterol, campesterol, myo-inositol) [3]
CC[C@H](CC[C@@H](C)[C@H]1CC[C@H]2[C@@H]3CC=C4C[C@@H](O)CC[C@]4(C)[C@H]3CC[C@]12C)C(C)C [sitosterol] | did not have a significant impact | did not have a significant impact | – | – | – | – | –
CC[C@H](/C=C/[C@@H](C)[C@H]1CC[C@H]2[C@@H]3CC=C4C[C@@H](O)CC[C@]4(C)[C@H]3CC[C@]12C)C(C)C [stigmasterol] | induction | induction | higher | slightly decreased | higher | remained elevated | shifted the levels of sitosterol, campesterol, and myo-inositol toward W22 levels
